{"source": "patent US20060122095A1", "about": "“Mucus formulation for mucosal surfaces and uses thereof” (priority 2002, published 2006)", "origin": "cited, not measured here", "key": {"HIV-1 [1]": {"tested_on": "HIV-1", "conditions": "previous evaluations of UC-781 formulations"}, "HIV-1 [2]": {"tested_on": "HIV-1", "conditions": "after complete washing away of unbound drug"}, "HIV-1 [3]": {"tested_on": "HIV-1"}, "[4]": {"conditions": "multiple routes of administration, different species of animals"}, "[5]": {"tested_on": "different cell types in culture", "conditions": "even at extremely high concentrations"}}, "note": "“Also recorded” adds a separate entry of the source."}
{"smiles": "CC(C)=CCOc1cc(NC(=S)c2ccoc2C)ccc1Cl", "note": "[UC-781, N-[4-chloro-3-(3-methyl-2-butenyloxy)phenyl]]", "values": [{"measurement": "activity in explant model", "setting": "HIV-1 [1]", "value": "remained active"}, {"measurement": "solubility in water", "value": "limited solubility in water"}, {"measurement": "resistance of pre-treated cells to infection (memory effect)", "setting": "HIV-1 [2]", "value": "remained resistant to infection for several days"}, {"measurement": "effectiveness against strains of HIV-1 that encode known NNRTI resistance mutations", "setting": "HIV-1 [3]; compared with wild type isolates", "value": "equally effective"}, {"measurement": "HIV-1 inhibition effect, inactivating concentration", "setting": "HIV-1 [3]; primary wild type isolates of clades A through G, in vitro", "value": "nanomolar range; also recorded: nanomolar concentrations"}, {"measurement": "bioavailability", "setting": "[4]", "value": "poor bioavailability"}, {"measurement": "toxic effect on cells in culture", "setting": "[5]", "value": "no toxic effect"}]}
